Measurements published in article PMC10518255, “A first-in-class pan-lysyl oxidase inhibitor impairs stromal remodeling and enhances gemcitabine response and survival in pancreatic cancer” (Nature Cancer, 2023).
Where “and” joins values, the source holds several entries; their conditions need not be identical. Equal values may be shown once.

System: TKCC10 human PDX tumors
Assay: TKCC10 human model, FITC-dextran perfusion (Extended Data Fig. 5f)
Format: in vivo, mouse
Conditions: for FITC-dextran (10 kDa) signal quantification: Extended Data 5F, human PDXs, individual FOV
Experimental: Subcutaneous PDX studies were performed by implanting early passage PDX pieces (~4 mm^3) or TKCC10 CCs (1.5 × 10^6 cells per mouse in 100 μl PBS/Matrigel 1:1) into female (PDX) or male (TKCC10) 8-week-old immunocompromised nude Balb/c-Fox1nuAusb mice subcutaneously on the left flank. For the duration of the study, mice were kept in conventional caging with environmental enrichment, access to standard chow, water ad libitum and 12-h light–dark cycle at ambient temperature and humidity. Treatment began when tumors reached 150 mm^3, where each mouse was randomized into a treatment group and administered gemcitabine HCl (100 mg kg^−1 in saline) (Jomar Life Research) or vehicle control (0.9% saline) by i.p. injection twice weekly on day 2 and 4 of the treatment cycle until an ethical end point was reached. These included maximal tumor mass ≥10% of body weight, weight loss ≥20% from maximum body weight or tumor interfering with mobility and affecting access to food and water. […] Tumor size was monitored every second day by calipers. Tumor volume was calculated using the formula (length × width^2)/2. […]
FITC-dextran (10 kDa) was administered at 40 mg ml^−1 in saline via tail vain 2 h before culling. […] Images were quantified using Fiji Software for Integrated Density Signal.
Extended Data Fig. 5 PXS-5505 in combination with gemcitabine in vivo. a. […] Signal is defined as the enzyme activity in the aorta, while noise is measured in the presence of a high concentration (300 µM) BAPN to abolish any lysyl oxidase family activity. […] FITC-dextran (molecular weight: 10 kDa) signal quantification from KPC tumor end point from each treatment group (vehicle n = 3 biologically independent animals, PXS-5505 n = 5 biologically independent animals, Gem n = 5 biologically independent animals, PXS-5505 + Gem n = 5 biologically independent animals). […] P-values determined by Welchs t-test. […] Quantification of red birefringent (mature) collagen fibers from human PDXs at end point after 3 cycles of treatment, treated as indicated. […] P values determined by Welchs t-test. g. […]

SMILES | FITC-dextran (10 kDa) signal quantification | FITC-dextran signal (tumor perfusion) (TKCC10 model)
Cl.Cl.NC/C=C(\F)CS(=O)(=O)c1cccc2cccnc12.O [PXS-5505, (Z)-3-fluoro-4-(quinolin-8-ylsulfonyl)but-2-en-1-amine dihydrochloride monohydrate] | 217149 and 705678 and 861620 and 155219 and 311738 and 1148786 and 651132 and 524503 and 645010 and 362873 and 336536 and 501004 and 447832 and 108773 and 210759 and 520769 and 406359 and 125675 and 423935 and 547504 | 
Nc1ccn([C@@H]2O[C@H](CO)[C@@H](O)C2(F)F)c(=O)n1 [Gem, gemcitabine] | 94281 and 105741 and 104921 and 268246 and 141904 and 94336 and 85811 and 123546 and 103971 and 163288 and 111668 and 293663 and 289768 and 460793 and 155579 and 95059 and 92172 and 111389 and 85819 and 99312 | significantly reduced FITC signal
